Results taken from patent publication US20250381220A1, “MAGNESIUM-L-THREONATE AND NEUROTRANSMITTER COMPOSITIONS AND RELATED METHODS” (Neuro Supplements, LLC, priority 2020, published 2025).

Tested on: Male Wistar Rats
Assay: Morris Water Maze (MWM) probe test
Type: in vivo, rat
Settings: 21 days through drinking water, probe test day 21, FIG. 4, MgT 435, PS 60 mg/kg bw/day

phosphatidylserine [PS] was tested, and the “time spent in target quadrant” value was “significant increase”.
